Measurements: patent US9532984B2, “Therapeutic combination for cancer treatment” (The Translational Genomics Research Institute, priority 2011, dated 2017)

Legend:
SW48 KRas Kras WT cells = assay: Cancer cell growth inhibition (cell proliferation), SW48 Kras WT; format: cell-based; conditions: Homo sapiens
Experimental: (§1) The experiments involved a broad testing of multiple concentrations of metformin, phenformin and pioglitazone against fixed concentrations of the autophagy inhibitors. […] Similar tests were carried out in mouse models.

[1] = tested on: SW48 KRas Kras G12V cells; assay: Cancer cell growth inhibition (cell proliferation), SW48 Kras G12V; format: cell-based; conditions: Homo sapiens
Experimental: as §1

[2] = tested on: SW48 KRas Kras G12D cells; assay: Cancer cell growth inhibition (cell proliferation), SW48 Kras G12D; format: cell-based; conditions: Homo sapiens
Experimental: as §1

[3] = tested on: BxPC-3 human pancreatic tumor xenograft
Experimental: BxPC-3 is a human pancreatic cancer cells obtained from the American Type Culture Collection and maintained as recommended. Female mice were inoculated subcutaneously in the right flank with 0.1 ml of a 50% RPMI/50% Matrigel™ (BD Biosciences, Bedford, Mass.) mixture containing a suspension of BxPC-3 human pancreatic tumor cells (approximately 5×10^6 cells/mouse). RPMI, a bicarbonate buffering system, and Matrigel™, a gelatinous protein mixture, support growth of many types of cultured cells including human normal and neoplastic leukocytes.
When tumors reached approximately 135 mg, mice were randomized into treatment groups. Body weights were recorded when the mice were randomized into groups and were weighted twice per week (on Study Days 3 and 7 for each cycle) thereafter in conjunction with tumor measurements. Group 1 mice were treated with vehicle control containing 5% DMA, 10% propylene glycol, 20% PEG 400, and 65% sterile water. Group 2 mice were treated with metformin only. Group 3 mice were treated with autophagy inhibitor in combination with metformin. Treatment began on the day of randomization. Metformin was delivered orally ad libitum in water. The autophagy inhibitor was delivered daily for 12 days in a vehicle of 5% DMA, 10% propylene glycol, 20% PEG 400, and 65% sterile water.

SMILES	IC50 (SW48 KRas Kras WT cells; no autophagy inhibitor) [µM]	IC50 (SW48 KRas Kras WT cells; with fixed Mefloquine 1 μM) [µM]	IC50 (SW48 KRas Kras WT cells; with fixed Mefloquine 3 μM) [µM]	IC50 (SW48 KRas Kras WT cells; with fixed Quinicrine 1 μM) [µM]	IC50 (SW48 KRas Kras WT cells; with fixed Quinicrine 3 μM) [µM]	IC50 ([1]; no autophagy inhibitor) [µM]	IC50 ([1]; with fixed Mefloquine 1 μM) [µM]	IC50 ([1]; with fixed Mefloquine 3 μM) [µM]	IC50 ([1]; with fixed Quinicrine 1 μM) [µM]	IC50 ([1]; with fixed Quinicrine 3 μM) [µM]	IC50 ([2]; no autophagy inhibitor) [µM]	IC50 ([2]; with fixed Mefloquine 1 μM) [µM]	IC50 ([2]; with fixed Mefloquine 3 μM) [µM]	IC50 ([2]; with fixed Quinicrine 1 μM) [µM]	IC50 ([2]; with fixed Quinicrine 3 μM) [µM]	other results
CN(C)C(=N)N=C(N)N [Metformin, metformin]	1000	< 20	600	1100	4800	430	< 20	40	< 20	500	1300	< 20	900	1100	> 10000	IC50 (SW48 KRas Kras WT cells; with fixed Primaquine 1 μM): 100 µM; IC50 (SW48 KRas Kras WT cells; with fixed Primaquine 3 μM): 2600 µM; IC50 ([1]; with fixed Primaquine 1 μM): 80 µM; IC50 ([1]; with fixed Primaquine 3 μM): 320 µM; IC50 ([2]; with fixed Primaquine 1 μM): 100 µM; IC50 ([2]; with fixed Primaquine 3 μM): > 10000 µM; tumor growth ([3]; after day 18, FIG. 1): continued although at a lower rate than that in Group 1 control; tumor growth rate ([3]; day 8 to about day 18, compared among groups, FIG. 1): lowest tumor growth rate; tumor size regressed ([3]; within about one week, after day 18): ~20 % by weight
[H]/N=C(/N)N/C(=N/[H])NCCc1ccccc1 [Phenformin, phenformin]	7.2	17.2	–	11	15.8	16.2	1.8	–	6.5	4.3	10.7	13	–	23.4	33.1	IC50 (SW48 KRas Kras WT cells; with fixed Chloroquine 1 μM): 23.4 µM; IC50 (SW48 KRas Kras WT cells; with fixed Chloroquine 3 μM): 11.7 µM; IC50 ([1]; with fixed Chloroquine 1 μM): 5.8 µM; IC50 ([1]; with fixed Chloroquine 3 μM): 4.5 µM; IC50 ([2]; with fixed Chloroquine 1 μM): 19.5 µM; IC50 ([2]; with fixed Chloroquine 3 μM): 16.2 µM
CCc1ccc(CCOc2ccc(CC3SC(=O)NC3=O)cc2)nc1 (stereo not drawn) [Pioglitizone, pioglitazone]	154	–	8.1	–	–	> 250	–	0.4	–	–	183	–	9.7	–	–	–
